The text below walks through data of patent US10160762B2, “6-alkyl dihydropyrazolopyrimidinone compounds as PDE2 inhibitors” (Merck Sharp & Dohme Corp., priority 2015, dated 2018).

Like-named read-outs stand apart in the source and are kept apart here.

By Ki is commonly meant the equilibrium dissociation constant of an inhibitor or competing ligand from its target.

The assay concerns the target T1, Rhesus PDE2A3 (Macaca mulatta, UniProt B3VTJ2).
T1 construct: made in house; host or cells: AD293 cells, transient transfection; supernatant of sonicated lysate
T1 sequence (B3VTJ2 1-941): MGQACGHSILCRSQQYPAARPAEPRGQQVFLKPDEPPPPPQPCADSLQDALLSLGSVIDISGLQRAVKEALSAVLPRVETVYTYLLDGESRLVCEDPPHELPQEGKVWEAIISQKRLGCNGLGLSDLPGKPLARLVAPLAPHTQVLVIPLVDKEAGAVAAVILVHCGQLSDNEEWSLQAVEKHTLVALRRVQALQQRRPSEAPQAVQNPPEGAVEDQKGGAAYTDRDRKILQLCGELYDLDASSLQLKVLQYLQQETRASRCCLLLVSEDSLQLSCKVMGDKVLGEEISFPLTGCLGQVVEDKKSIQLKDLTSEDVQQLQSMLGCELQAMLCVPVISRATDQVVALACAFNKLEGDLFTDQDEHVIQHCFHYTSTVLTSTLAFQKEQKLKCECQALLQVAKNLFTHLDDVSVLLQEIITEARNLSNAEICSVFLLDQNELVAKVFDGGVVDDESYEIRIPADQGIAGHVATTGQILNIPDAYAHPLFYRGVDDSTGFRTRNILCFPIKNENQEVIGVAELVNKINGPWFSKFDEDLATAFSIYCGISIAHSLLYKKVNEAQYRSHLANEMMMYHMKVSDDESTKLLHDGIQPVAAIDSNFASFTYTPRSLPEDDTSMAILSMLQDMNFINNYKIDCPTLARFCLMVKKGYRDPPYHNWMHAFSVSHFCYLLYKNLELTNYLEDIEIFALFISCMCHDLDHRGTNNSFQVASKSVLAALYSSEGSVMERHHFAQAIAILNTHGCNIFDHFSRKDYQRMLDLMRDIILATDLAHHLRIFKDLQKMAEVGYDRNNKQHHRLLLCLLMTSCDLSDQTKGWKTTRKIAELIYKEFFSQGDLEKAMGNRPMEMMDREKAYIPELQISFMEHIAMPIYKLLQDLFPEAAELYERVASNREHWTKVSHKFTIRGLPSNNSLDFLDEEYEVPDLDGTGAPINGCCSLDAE
Nature of the assay: PDE2 fluorescence polarization (IMAP FP) inhibition assay, rhesus PDE2A3. The format is biochemical, rhesus macaque. In a few lines: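 Enzyme source was the lysate supernatant of AD293 cells transiently expressing rhesus PDE2A3, diluted to give 20% conversion of 50 nM FAM-cAMP, with 1 µM cGMP as activator. Buffer was 10 mM Tris pH 7.2, 10 mM MgCl2, 1 mM DTT.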

[1] abbreviates: Lab B, read-out: Rhesus PDE2 Ki (nM) Lab B.
Setting [2] is: Lab A, read-out: Rhesus PDE2 Ki (nM) Lab A.

Consider `CCC(c1ccc(C(F)(F)F)cc1)n1nc(CO)c2c(=O)[nH]c(C)nc21` (single isomer, unassigned) [Example 132, (R)- or (S)-3-(Hydroxymethyl)-6-methyl-1-(1-(4-(trifluoro-methyl)phenyl)propyl)-1H-pyrazolo[3,4-d]pyrimidin-4(5H)-one], for which the inhibitory constant (Ki) under setting [1] is 1.5 nM. `Cc1nn(C(C)c2ccc(C(F)(F)F)cc2)c2nc(C(C)C)[nH]c(=O)c12` (centres unmarked) [Example 43, 3-Methyl-6-(1-methylethyl)-1-{1-[4-(trifluoromethyl)phenyl]ethyl}-1,5-dihydro-4H-pyrazolo[3,4-d]pyrimidin-4-one]: the Ki under setting [2] turned out to be 257 nM. With `Cc1nc2c(c(CO)nn2[C@H](c2ccc(C(C)(C)C)cc2)C(C)C)c(=O)[nH]1` [Example 159, (S)-1-(1-(4-tert-Butylphenyl)-2-methylpropyl)-3-(hydroxymethyl)-6-methyl-1H-pyrazolo[3,4-d]pyrimidin-4(5H)-one], the Ki under setting [1] came to 2.8 nM. For `Cc1nc2c(c(CCl)nn2C(c2ccc(C(F)(F)F)cc2)C2CC2)c(=O)[nH]1` (centres unmarked) [Example 232, 3-(chloromethyl)-1-(cyclopropyl(4-(trifluoromethyl)phenyl)methyl)-6-methyl-1H-pyrazolo[3,4-d]pyrimidin-4(5H)-one], the Ki was found to be 0.47 nM under setting [2] and 0.85 nM under setting [1].
